# Results from patent US20190209501A1, “COMPOSITIONS AND METHODS OF USE OF BETA-HYDROXY-BETA-METHYLBUTYRATE (HMB) […] IN[…]” (Texas Tech University Office of Research Commercialization, priority 2018, published 2019).
# Entries after “also recorded” stand apart in the source; their conditions may differ. Marks after values point to notes of the source that are not given here.
# Experiment: Body composition, modified 4-component model (DXA + BIS), and body mass
# Type: in vivo, human
# Details: for FM (kg) Week 4 / FM (kg) Week 8: 4-component fat mass; for FFM (kg) Week 4 / FFM (kg) Week 8: 4-component fat-free mass; for BF % ES (d) / BM ES (d) / FFM ES (d) / FM ES (d): Cohen's d baseline vs week 8; for BM (kg) Week 4 / BM (kg) Week 8: body mass; for BF % Δ (%) / BM Δ (%) / FFM Δ (%) / FM Δ (%): change baseline to week 8 relative to baseline; for BM (kg) Δ / FFM (kg) Δ / FM (kg) Δ: week 8 minus baseline; for BF % Δ: week 8 minus baseline (absolute BF %)
# Description: At baseline and after 4 and 8 weeks of the intervention, participants completed two testing sessions: (1) a morning assessment conducted after an overnight fast for assessment of body composition, metabolism, vascular measures and subjective factors: and (2) an afternoon assessment of muscular performance, conducted in the non-fasted state. For morning assessments, participants reported to the laboratory after abstention from eating, drinking, exercising and utilizing caffeine or nicotine for ≥8 hours. Participants were interviewed to confirm adherence to these pre-assessment restrictions. The actual abstention from exercise was ≥14 hours due to the scheduling of exercise sessions. Participants reported to the laboratory wearing athletic clothing, and all metal and accessories were removed from the body prior to testing. Each participant voided her bladder and provided a urine sample. Urine samples were assessed for urine specific gravity (USG) using a digital refractometer (PA201X-093. Misco, Solon, Ohio. USA). Additionally, a standard urinary HCG test was performed to confirm that each participant was not pregnant. Finally, urinary samples were frozen at −80° C. for assessment of urinary HMB content after study unblinding. After voiding, each participant's body mass (BM) and height were determined via digital scale with stadiometer (Seca 769, Hamburg, Germany). Blood draws were performed at Texas Tech University Student Health Services after an overnight fast, and participants completed at-home saliva collections for assessment of the cortisol awakening response (CAR).
# Body composition was assessed using a modified 4-component (4C) model (20, 21) produced from dual-energy x-ray absorptiometry (DXA) and bioimpedance spectroscopy (BIS) data. DXA scans were performed on a Lunar Prodigy scanner (General Electric, Boston, Mass., USA) with enCORE software (v. 16.2). The scanner was calibrated using a quality control block each morning prior to use, and positioning of participants was conducted according to manufacturer recommendations. Each participant was able to fit within the scanning dimensions. DXA bone mineral content (BMC) was divided by 0.9582 to yield an estimate of bone mineral (Mo) (22). Additionally, body volume (BV) was estimated from DXA lean soft tissue (LST), fat mass (FM) and BMC using the equation developed by Wilson et al. for General Electric DXA scanners (20):
# BIS was utilized to obtain total body water (TBW) estimates. BIS utilizes Cole modeling (23) and mixture theories (24) to predict body fluids rather than regression equations used by other impedance methods (e.g. bioelectrical impedance analysis (25)). The BIS device used in the present study (SFB7, ImpediMed. Carlsbad, Calif., USA) employs 256 measurement frequencies ranging from 4 to 1,000 kHz. Each participant remained supine for ≥5 minutes immediately prior to assessment using the manufacturer-recommended hand-to-foot electrode arrangement. Duplicate assessments were performed, with the values averaged for analysis. Assessments were reviewed for quality assurance through visual inspection of Cole plots.
# The 4C equation of Wang et al. was utilized for estimation of whole-body FM (26):
# FFM was calculated as BM−FM, and BF % was calculated as (FM/BM)×100.
# [1] = ITT analysis, week 4, mean ± SE
# [2] = ITT analysis, week 8, mean ± SE
smiles,measurement,setting,value
"CC(C)(O)CC(=O)O [TRFHMB, β-hydroxy-β-methylbutyrate]","Absolute effect size for BF % loss, TRFHMB relative to HMB only",4 weeks,2 fold
same,BF % Week 4,"ITT analysis, 4-component body fat percentage, week 4, mean ± SE",27.1 ± 1.7%
same,BF % Week 8,"ITT analysis, 4-component body fat percentage, week 8, mean ± SE",27.3 ± 1.6%
same,FM (kg) Week 4,[1],17.5 ± 1.5 kg
same,FM (kg) Week 8,[2],17.5 ± 1.5 kg
same,FFM (kg) Week 4,[1],46.5 ± 1.4 kg
same,FFM (kg) Week 8,[2],46.2 ± 1.3 kg
same,BF % ES (d),ITT analysis,−0.25
same,BM ES (d),ITT analysis,0.08
same,FFM ES (d),ITT analysis,0.26
same,FM ES (d),ITT analysis,−0.13
same,BM (kg) Week 4,[1],63.9 ± 2.2 kg
same,BM (kg) Week 8,[2],63.8 ± 2.1 kg
same,BF % Δ (%),ITT analysis,−5%
same,BM Δ (%),ITT analysis,1%
same,FFM Δ (%),ITT analysis,3%
same,FM Δ (%),ITT analysis,−4%
same,BM (kg) Δ,ITT analysis,0.6 kg
same,FFM (kg) Δ,ITT analysis,1.2 kg
same,FM (kg) Δ,ITT analysis,-0.7 kg
same,BF % Δ,ITT analysis,−1.4%
same,Fat mass change versus baseline (in words),PP analysis,significant reductions; also recorded: lower at W8 than baseline
same,BF % Week 8,"PP analysis, 4-component body fat percentage, week 8, mean ± SE",26.8 ± 2.6^b %
same,FM (kg) Week 4,"PP analysis, week 4, mean ± SE",17.5 ± 2.5 kg
same,FM (kg) Week 8,"PP analysis, week 8, mean ± SE",17.3 ± 2.3^b kg
same,FFM (kg) Week 4,"PP analysis, week 4, mean ± SE",46.8 ± 1.8 kg
same,FFM (kg) Week 8,"PP analysis, week 8, mean ± SE",46.4 ± 1.6 kg
same,BF % ES (d),PP analysis,−0.34
same,BM ES (d),PP analysis,0.00
same,FFM ES (d),PP analysis,0.32
same,FM ES (d),PP analysis,−0.23
same,BM (kg) Week 4,"PP analysis, week 4 of TRF + 3 g/d HMB + RT, mean ± SE",64.2 ± 3.1 kg
same,BM (kg) Week 8,"PP analysis, week 8, mean ± SE",63.7 ± 3.0 kg
same,BF % Δ (%),PP analysis,−8%
same,BM Δ (%),PP analysis,0%
same,FFM Δ (%),PP analysis,3%
same,FM Δ (%),PP analysis,−7%
same,Reduction in BF % at W8 (significance),"PP analysis, week 8",statistically significant
same,BM (kg) Δ,PP analysis,0.0 kg
same,FFM (kg) Δ,PP analysis,1.4 kg
same,FM (kg) Δ,PP analysis,-1.4 kg
same,BF % Δ,PP analysis,−2.3%
same,BF % 4-week effect size (d),"PP, TRF + 3 g/d Calcium-HMB + RT, n=7",−0.31
same,BF % 4-week Δ-change,"PP, TRF + 3 g/d Calcium-HMB + RT, n=7, baseline 29.1±2.5, p<0.05",−2.1%
